Experimental data: patent US20220305012A1, “L[…] TREATING SLEEP ISSUES” (EISAI R&D MANAGEMENT CO., LTD., priority 2019, published 2022)
Read-outs that look alike come from different tables or passages of the source.

Tests used:
Assay type in all cases: in vivo, human
[1] = system: Subjects Having Insomnia Disorder; test: Example 1: subjective sleep efficiency (sSE), Sleep Diary
From the text: As used herein, the term “subjective sleep efficiency”, abbreviated as “sSE”, means the proportion of sTST per subjective time spent in bed, calculated as the interval from the time the subject reports attempting to sleep until the time the subject stopped trying to sleep for the night (operationalized as the time the subject got out of bed for the day), and time spent asleep derived from subjective time spent in bed minus sWASO. As used herein, an “improvement of sleep efficiency in Subjective Sleep Efficiency (sSE)” means an increase in sleep efficiency in Subjective Sleep Efficiency (sSE).
(§1) In some embodiments, sleep diaries were used to assess sleep parameters reported by subjects (i.e., subjective assessments) including subjective sleep onset latency (sSOL), subjective sleep efficiency (sSE), subjective WASO (sWASO), and subjective total sleep time (sTST). Subjects were instructed to complete the Sleep Diary developed based on the consensus Sleep Diary as described in Carney et al., “The consensus sleep diary: standardizing prospective sleep self-monitoring,” Sleep 2012; 35(2):287-302. In some embodiments, the Sleep Diary was used to assess the subject's global perception of quality of sleep on the previous night with the following question: “How would you rate the quality of your sleep last night?” Subjects rated the quality of their sleep on a scale from 1 to 9, with 1 being extremely poor and 9 being extremely good. In some embodiments, the Sleep Diary was used to assess subjective ratings of morning sleepiness with the following question: “How alert/sleepy do you feel this morning?” Subjects rated their sleepiness/alertness level on a Likert scale from 1 to 9, with 1 being extremely sleepy and 9 being extremely alert.
sSE—subjective sleep efficiency: proportion of sTST per subjective time spent in bed, calculated as the interval from the time the subject reports attempting to sleep until the time the subject stopped trying to sleep for the night (operationalized as the time the subject got out of bed for the day), and time spent asleep derived from subjective time in bed minus sWASO.
Subjects were randomized in a double-blind manner and received either placebo, 5 mg of lemborexant, or 10 mg of lemborexant (approximately 1:1:1 randomization). All subjects underwent routine safety monitoring through the study, including assessments of treatment-emergent adverse events, 12-lead electrocardiograms, vital signs, weight, and clinical hematology and blood chemistry labs. Suicidality was assessed using the eC-SSRS.
(§2) Treatment period 1 began with the first dose of randomized study medication (placebo, 5 mg of lemborexant, or 10 mg of lemborexant). Subjects completed sleep diaries daily in the morning, within one hour of waketime. The subjects were assessed by a clinician one month, two months, three months, and six months after initiation of Treatment period 1. The following assessments were conducted:
This study had two key secondary endpoints. The first key secondary endpoint was the mean change from study baseline in subjective sleep efficiency at month 6. The second key secondary endpoint was the mean change from study baseline of subjective wake after sleep onset at month 6.

[2] = system: Subjects Having Insomnia Disorder; test: Example 1: Quality of Sleep rating (scale 1 to 9); details: for Quality of Sleep score, Mean (SD): Baseline; for Quality of Sleep score, Treatment difference (vs placebo): change from baseline at Month 6
From the text: as §1
as §2, with “1.” for “1. The following assessments were conducted:”

[3] = system: Subjects Having Insomnia Disorder; test: Example 1: Morning Sleepiness rating (scale 1 to 9); details: for Morning Sleepiness score, Mean (SD): Baseline; for Morning Sleepiness score, Treatment difference (vs placebo): change from baseline at Month 6
From the text: as §1
as §2, with “1.” for “1. The following assessments were conducted:”

[4] = Example 1: plasma concentrations of lemborexant and metabolites; details: for concentration at 1 month / concentration at 3 month / concentration at 6 month: human, plasma
Experimental: Month 1 Assessment: Standard safety assessments were performed on the subject. A blood sample was collected for determination of plasma concentration of lemborexant and its metabolites, and the ISI, FSS, PGI-Insomnia, EQ-5D-3L, and eC-SSR were completed.
Month 3 Assessment: All assessments conducted at the Month 1 Assessment were repeated.
Month 6 Assessment: All assessments conducted at the Month 1 Assessment were repeated, and subjects completed the WPAI-GH.

Cc1ncc(OC[C@@]2(c3cccc(F)c3)C[C@H]2C(=O)Nc2ccc(F)cn2)c(C)n1 [Lemborexant, (1R,2S)-2-(((2,4-dimethylpyrimidin-5-yl)oxy)methyl)-2-(3-fluorophenyl)-N-(5-fluoropyridin-2-yl)cyclopropanecarboxamide]
subjective sleep efficiency compared with placebo ([1]; 5 mg and 10 mg, at the equivalent timepoint (Table 3)): greater increase in subjective sleep efficiency than subjects treated with placebo | sSE, Mean ([1]; 5 mg, First 7 Nights): 69.97% | sSE, Median ([1]; 5 mg, First 7 Nights): 74.62% | sSE, Mean ([1]; 5 mg, Month 1): 71.56% | sSE, Median ([1]; 5 mg, Month 1): 76.35% | sSE, Mean ([1]; 5 mg, Month 3): 77.29% | sSE, Median ([1]; 5 mg, Month 3): 81.32% | sSE, Mean ([1]; 5 mg, Month 6): 78.55% | sSE, Median ([1]; 5 mg, Month 6): 82.02% | sSE, Mean ([1]; 5 mg, Study Baseline): 63.14% | sSE, Median ([1]; 5 mg, Study Baseline): 67.00% | sSE Change from Study Baseline, Mean ([1]; 5 mg, after 1 Month): 7.87% | sSE Change from Study Baseline, Median ([1]; 5 mg, after 1 Month): 6.75% | sSE Change from Study Baseline, Mean ([1]; 5 mg, after 3 Months): 13.03% | sSE Change from Study Baseline, Median ([1]; 5 mg, after 3 Months): 11.63% | sSE Change from Study Baseline, Mean ([1]; 5 mg, after 6 Months): 15.34% | sSE Change from Study Baseline, Median ([1]; 5 mg, after 6 Months): 13.33% | sSE Change from Study Baseline, Mean ([1]; 5 mg, after 7 Nights): 6.61% | sSE Change from Study Baseline, Median ([1]; 5 mg, after 7 Nights): 5.45% | sSE LSM treatment difference: Lemborexant-Placebo ([1]; 5 mg, change from Study Baseline after 1 Month): 2.227% | sSE LSM treatment difference: Lemborexant-Placebo ([1]; 5 mg, change from Study Baseline after 3 Months): 4.222% | sSE LSM treatment difference: Lemborexant-Placebo ([1]; 5 mg, change from Study Baseline after 6 Months): 4.549% | sSE LSM treatment difference: Lemborexant-Placebo ([1]; 5 mg, change from Study Baseline after 7 Nights): 4.299% | sSE, Mean ([1]; 10 mg, First 7 Nights): 69.96% | sSE, Median ([1]; 10 mg, First 7 Nights): 71.85% | sSE, Mean ([1]; 10 mg, Month 1): 71.04% | sSE, Median ([1]; 10 mg, Month 1): 74.70% | sSE, Mean ([1]; 10 mg, Month 3): 75.15% | sSE, Median ([1]; 10 mg, Month 3): 78.30% | sSE, Mean ([1]; 10 mg, Month 6): 76.53% | sSE, Median ([1]; 10 mg, Month 6): 80.22% | sSE, Mean ([1]; 10 mg, Study Baseline): 62.03% | sSE, Median ([1]; 10 mg, Study Baseline): 65.05% | sSE Change from Study Baseline, Mean ([1]; 10 mg, after 1 Month): 9.92% | sSE Change from Study Baseline, Median ([1]; 10 mg, after 1 Month): 9.00% | sSE Change from Study Baseline, Mean ([1]; 10 mg, after 3 Months): 13.61% | sSE Change from Study Baseline, Median ([1]; 10 mg, after 3 Months): 12.62% | sSE Change from Study Baseline, Mean ([1]; 10 mg, after 6 Months): 15.55% | sSE Change from Study Baseline, Median ([1]; 10 mg, after 6 Months): 13.91% | sSE Change from Study Baseline, Mean ([1]; 10 mg, after 7 Nights): 8.27% | sSE Change from Study Baseline, Median ([1]; 10 mg, after 7 Nights): 7.17% | sSE LSM treatment difference: Lemborexant-Placebo ([1]; 10 mg, change from Study Baseline after 1 Month): 3.615% | sSE LSM treatment difference: Lemborexant-Placebo ([1]; 10 mg, change from Study Baseline after 3 Months): 4.361% | sSE LSM treatment difference: Lemborexant-Placebo ([1]; 10 mg, change from Study Baseline after 6 Months): 4.667% | sSE LSM treatment difference: Lemborexant-Placebo ([1]; 10 mg, change from Study Baseline after 7 Nights): 5.793% | Quality of Sleep score, Mean (SD) ([2]; 5 mg): 4.0 (1.3) | Quality of Sleep score, Treatment difference (vs placebo) ([2]; 5 mg): 0.28 | Quality of Sleep score, Mean (SD) ([2]; 10 mg): 4.0 (1.4) | Quality of Sleep score, Treatment difference (vs placebo) ([2]; 10 mg): 0.32 | quality of sleep compared with placebo ([2]; at 6 months (Table 8)): significantly improved | Morning Sleepiness score, Mean (SD) ([3]; 5 mg): 3.93 (1.35) | Morning Sleepiness score, Treatment difference (vs placebo) ([3]; 5 mg): 0.15 | Morning Sleepiness score, Mean (SD) ([3]; 10 mg): 3.93 (1.32) | Morning Sleepiness score, Treatment difference (vs placebo) ([3]; 10 mg): 0.26 | morning sleepiness compared with placebo ([3]; at 6 months (Table 8)): significantly improved | concentration at 1 month ([4]; 10 mg, lemborexant 10 mg dose, Month 1, read-out: Plasma concentration, Mean (SD)): 16.3 ng/mL | concentration at 1 month ([4]; 10 mg, lemborexant 10 mg dose, Month 1, read-out: Plasma concentration, Median): 15.1 ng/mL | concentration at 3 month ([4]; 10 mg, lemborexant 10 mg dose, Month 3, read-out: Plasma concentration, Mean (SD)): 15.6 ng/mL | concentration at 3 month ([4]; 10 mg, lemborexant 10 mg dose, Month 3, read-out: Plasma concentration, Median): 15.1 ng/mL | concentration at 6 month ([4]; 10 mg, lemborexant 10 mg dose, Month 6, read-out: Plasma concentration, Mean (SD)): 15.2 ng/mL | concentration at 6 month ([4]; 10 mg, lemborexant 10 mg dose, Month 6, read-out: Plasma concentration, Median): 14.5 ng/mL | concentration at 1 month ([4]; oral, 5 mg, lemborexant 5 mg dose, Month 1, read-out: Plasma concentration, Mean (SD)): 9 ng/mL | concentration at 1 month ([4]; oral, 5 mg, lemborexant 5 mg dose, Month 1, read-out: Plasma concentration, Median): 7.6 ng/mL | concentration at 3 month ([4]; oral, 5 mg, lemborexant 5 mg dose, Month 3, read-out: Plasma concentration, Mean (SD)): 8.4 ng/mL | concentration at 3 month ([4]; oral, 5 mg, lemborexant 5 mg dose, Month 3, read-out: Plasma concentration, Median): 7.7 ng/mL | concentration at 6 month ([4]; oral, 5 mg, lemborexant 5 mg dose, Month 6, read-out: Plasma concentration, Mean (SD)): 7.9 ng/mL | concentration at 6 month ([4]; oral, 5 mg, lemborexant 5 mg dose, Month 6, read-out: Plasma concentration, Median): 6.9 ng/mL | Plasma concentration BLQ (<0.0500 ng/mL) ([4]; lemborexant 5 mg dose, Month 1): 31 (10.5) n (%) | Plasma concentration BLQ (<0.0500 ng/mL) ([4]; lemborexant 5 mg dose, Month 3): 34 (12.6) n (%) | Plasma concentration BLQ (<0.0500 ng/mL) ([4]; lemborexant 5 mg dose, Month 6): 45 (18.2) n (%) | Plasma concentration BLQ (<0.0500 ng/mL) ([4]; lemborexant 10 mg dose, Month 1): 21 (7.4) n (%) | Plasma concentration BLQ (<0.0500 ng/mL) ([4]; lemborexant 10 mg dose, Month 3): 29 (11.2) n (%) | Plasma concentration BLQ (<0.0500 ng/mL) ([4]; lemborexant 10 mg dose, Month 6): 33 (14.6) n (%)
